Laboratory results published in patent publication US11904051B2, “Shear stress sensitive liposomes” (Universität Basel, priority 2018, dated 2024).
“And” between values parts separate entries of the source, which are not always exact repeats. Equal values may be shown once.

What was measured:
[1] = Release experiments with 5(6)-carboxyfluorescein-loaded large unilamellar vesicles (LUVET100), spontaneous and vortex-triggered; format: physicochemical; details: for release at 37° C. without vortexing: without vortexing/shaking; for Release at RT after 60 s vortex / Release 37° C. after 60 s vortex: mechanically induced release, 60 s vortexing; for Release at RT after 60 s vortex / Release at RT after 7 days: 22° C. (RT); for Release at RT after 7 days: spontaneous release of 5(6)-carboxyfluorescein
Excerpt: FIG. 8 Release experiments using 5(6)-carboxyfluorescein-loaded large unilamellar vesicles comprising 1,3-diheptadecanamidopropan-2-yl (2-(trimethylammonio) ethyl) phosphate (4) obtained via extrusion through a 100 nm track-edged filter membrane (LUVET100). Triggered release was induced by shaking the samples for a specific amount of time on a vortex-shaker.
Previously the inventors reported the 5(6)-carboxyfluorescein release from vesicles containing 1,3-palmitoylamido-1,3-deoxy-sn-glycero-2-phosphatidylcholine (2) (Holme et al., Nat. Nanotechnol. 2012, 7, 536-543). […] Increasing the Tm promises improved release properties. […] This leads to a lower leakage of the vesicles at 22° C. (room temperature) as well as 37° C. (average human body temperature) (FIG. 8). A prolongation if the acyl chain to the artificial C18 phospholipid 1,3-stearoylamido-1,3-deoxy-sn-glycero-2-phosphatidylcholine leads to an increased Tm of 52° C., but this phospholipid forms almost no liposomes anymore.
Each sample was treated with Triton X-100 to induce a full release of 5(6)-carboxy fluorescein.
Large unilamellar vesicles with a diameter of 100 nm (LUVET100) of the 1,3-diheptadecanamidopropan-2-yl (2-(trimethylammonio) ethyl) phosphate (4) were prepared following the extrusion protocol: in a 25 ml round bottom flask, 10 mg of the lipid was dissolved in CH2Cl2. After evaporation of the organic solvent, the film was further dried under high vacuum (40 mbar) overnight. Then the film was hydrated with the internal buffer for 30 min (1 ml, 50 mM 5(6)-carboxyfluorescein, 10 mM HEPES buffer (AppliChem), 10 mM NaCl dissolved in pure water, pH 7.4). Now at least 5 freeze-thaw cycles (liquid N2 to 65° C.) were carried out before the suspension was extruded 11 times using a Mini Extruder (Avanti Polar Lipids, USA) using track-edged filters with a mesh size of 100 nm (Whatman, USA). The external buffer was then exchanged on a size exclusion column (1.5×20 cm Sephadex G-50 column) in external buffer (107 mM NaCl dissolved in ultrapure water, 10 mM HEPES, pH 7.4).

[2] = Differential scanning calorimetry, main phase transition of vesicle membranes; format: physicochemical; details: for Tm: main phase transition temperature of liposome membrane
Excerpt: Interdigitation of membrane leaflets also influences the membranes main-phase transition temperature. […] Also, the value for the bilayer main-phase transition temperature is 11.5 K higher than the calculated critical temperature from the monolayer experiments, where no interdigitation is possible.

[3] = Dynamic light scattering of liposome formulations before and after SANS heating cycles; format: physicochemical; details: for PDI, After heating / Size (hydrodynamic), After heating: after the SANS experiments (n = 3); for Size (hydrodynamic), After heating: heating to 42° C. and back, eight months after; for Size (hydrodynamic), Before heating / PDI, Before heating: before the SANS experiments (n = 5); for Size (hydrodynamic), Before heating: room temperature, D2O
Experimental: A library of artificial phospholipids was synthesised. Table 5 summarises the characterisation of the liposomal formulations concerning hydrodynamic size and polydispersity, before and after the temperature-dependent SANS measurements. The size of the DPPC and Pad-PC-Pad liposomes was (120±2) nm with a polydispersity index between 0.01 and 0.20. […] Pad-Pad-PC and Sur-PC-Sur liposomes were 400 to 1,500 nm in size with a polydispersity index of 0.57.
DLS measurements were carried out on a DelsaMax PRO (Beckman Coulter, USA) at room temperature and at a lipid concentration of 0.3 mg/mL in D2O. The data were averaged among five independent measurements before heating cycles and three measurements eight months after applying heating cycles. Data were treated with the cumulant analysis method.

[4] = reported previously; cited from earlier work
[5] = LUVs, heating and cooling rates of 0.5° C./min

| Release at 37° C. after 2 h [1] | release at 37° C. without vortexing [1] | release at 37° C. without vortexing ([1]; listed as 1,3-palmitoylamido-1,3-deoxy-sn-glycero-2-phosphatidylcholine) | Release at RT after 60 s vortex [1] | Release 37° C. after 60 s vortex [1] | Release at RT after 7 days [1] | Tm [2] | PDI, After heating [3] | Size (hydrodynamic), After heating [3] | Size (hydrodynamic), Before heating [3] | Size (hydrodynamic), Before heating ([3]; listed as Pad-PC-Pad (4)) | PDI, Before heating ([3]; listed as Pad-PC-Pad (4)) | Size (hydrodynamic), Before heating ([3]; listed as DPPC (1)) | PDI, Before heating ([3]; listed as DPPC (1)) | change in enthalpy at main phase transition [2, 5] | main phase transition temperature [2, 5] | DLS most probable / dominant or smaller population size [3] | PDI, Before heating [3] | Size (hydrodynamic), Before heating ([3]; listed as Rad-PC-Rad (5)) | SMILES | Tm, main phase transition temperature [4] |
| --- | --- | --- | --- | --- | --- | --- | --- | --- | --- | --- | --- | --- | --- | --- | --- | --- | --- | --- | --- | --- |
| 100% | 100% | immediate full release | 43.4% | 100% | 15.5% | 37 °C | 0.33 ± 0.04 | 53 ± 4 nm | 120±2 nm | 126 ± 4 nm | 0.19 ± 0.04 |  |  |  |  |  |  |  | CCCCCCCCCCCCCCCC(=O)NCC(CNC(=O)CCCCCCCCCCCCCCC)OP(=O)([O-])OCC[N+](C)(C)C [Pad-PC-Pad, 1,3-palmitoylamido-1,3-deoxy-sn-glycero-2-phosphatidylcholine] | 37 °C |
| 12.2% |  |  | 1.1% | 17.9% | 4.5% | 41 °C | 0.33 ± 0.02 | 600 ± 40 nm | 120±2 nm |  |  | 120 ± 2 nm | 0.01 ± 0.01 |  |  |  |  |  | CCCCCCCCCCCCCCCC(=O)OC[C@H](COP(=O)([O-])OCC[N+](C)(C)C)OC(=O)CCCCCCCCCCCCCCC [DPPC, 1,2-dipalmitoyl-sn-glycero-3-phosphocholine] | 41 °C |
| 6% |  |  | 24% and 23.8% | 34% | 9% and 9.4% | 45 °C | 0.32 ± 0.03 | 700 ± 100 nm |  |  |  |  |  | 5.774 kcal/mol | 44.7 °C | about 150 nm | 0.57 ± 0.01 | 150 ± 3 nm | CCCCCCCCCCCCCCCCC(=O)NCC(CNC(=O)CCCCCCCCCCCCCCCC)OP(=O)([O-])OCC[N+](C)(C)C [Rad-PC-Rad, 1,3-diheptadecanamidopropan-2-yl (2-(trimethylammonio)ethyl) phosphate] | 45 °C |
